Earlier results, collected in patent publication US20050026902A1, “Methods and compositions for the treatment or prevention of human immunodeficiency virus and related conditions using cyclooxygenase-2 selective inhibitors and antiviral agents” (priority 2003, published 2005).
Like-named read-outs stand apart in the source and are kept apart here.

How the values were obtained:
[1] = target: HIV-1 RT from the HxB2 clone (RT-SHIV) (Human immunodeficiency virus type 1 group M subtype B, UniProt P04585); details: in vitro tests
[2] = human, in vivo
RT-SHIV = details: in vitro tests
[3] = human, in vivo, po
[4] = human, in vivo, po; remark: listed apart in the source

Row | SMILES | Food Effect [2] | Food Effect [3] | Food Effect [4] | also measured
1 | Cc1ccnc2c1NC(=O)c1cccnc1N2C1CC1 [Nevirapine, nevirapine] | None | – | – | inhibition of the RT activity of RT-SHIV [1]: could inhibit; inhibition of replication of RT-SHIV (RT-SHIV): could inhibit
2 | Cc1c(O)cccc1C(=O)N[C@@H](CSc1ccccc1)[C@H](O)CN1C[C@H]2CCCC[C@H]2C[C@H]1C(=O)NC(C)(C)C [Nelfinavir, nelfinavir] | – | Take with food if possible | – | –
3 | CC(C)CN(C[C@@H](O)[C@H](Cc1ccccc1)NC(=O)O[C@H]1CCOC1)S(=O)(=O)c1ccc(N)cc1 [Amprenavir] | – | Avoid taking | – | –
4 | CC(C)Nc1cccnc1N1CCN(C(=O)c2cc3cc(NS(C)(=O)=O)ccc3[nH]2)CC1 [Delavirdine] | None | – | – | –
5 | CC(C)c1nc(CN(C)C(=O)N[C@H](C(=O)N[C@@H](Cc2ccccc2)C[C@H](O)[C@H](Cc2ccccc2)NC(=O)OCc2cncs2)C(C)C)cs1 [Ritonavir, ritonavir] | – | Take with food if possible | – | –
6 | O=C1Nc2ccc(Cl)cc2[C@@](C#CC2CC2)(C(F)(F)F)O1 [Efavirenz] | Avoid taking | – | – | –
7 | Nc1nc(NC2CC2)c2ncn([C@H]3C=C[C@@H](CO)C3)c2n1 [Abacavir] | – | – | None | –

Now from value to compound, other results behind:

Row | Food Effect [2] | Food Effect [3] | Food Effect [4] | SMILES | also measured
8 | – | – | None | Cc1cn([C@H]2C[C@H](N=[N+]=[N-])[C@@H](CO)O2)c(=O)[nH]c1=O [Zidovudine] | –
9 | – | – | None | Nc1ccn([C@H]2CC[C@@H](CO)O2)c(=O)n1 [Zalcitabine] | –
10 | – | – | None | Cc1cn([C@H]2C=C[C@@H](CO)O2)c(=O)[nH]c1=O [Stavudine] | –
